Assay results reported in patent US20080160108A1, “Method of treating muscular dystrophies with an inhibitor of histone deacetylase” (Centre National de la Recherche Scientifique- CNRS, a …, priority 2002, published 2008).

Tests used:
utrophin [1] = test: Utrophin in muscle of mdx mice injected i.p., immunofluorescence and Western blot; type: in vivo, mouse; details: 200 mg/kg/day i.p. daily for 6 weeks
Experimental: Mdx mice were injected daily i.p. and for 6 weeks with 200 mg/kg/day either with butyrate or with L-arginine or with physiological serum. It is observed that the utrophin is poorly expressed in the muscle of the mdx mice injected with physiological serum used as control. […] It should be noted that the augmentation of utrophin is greater in the case of the mice injected with butyrate. The augmentation of the utrophin was quantified in Western blot.

utrophin [2] = test: Utrophin expression in myotubes of mdx mice, Western blot; type: cell-based, mouse; details: myotubes of dystrophic mdx mice (line xlt), 5 mM, 48 h
Experimental: Myotubes of dystrophic mdx mice (line xlt) are treated with 5 mM of butyrate for 48 h. The augmentation of utrophin is then quantified in Western blot.

utrophin [3] = test: Utrophin in muscle of healthy OF1 mice injected i.p.; type: in vivo, mouse
Experimental: OF1 mice were injected daily with i.p. and for 6 weeks with 100, 200 or 300 mg/kg/day either with arginine butyrate or with physiological serum. No utrophin was observed on the membrane in the muscle of the mice injected with the physiological serum used as control (“non-treated”). […] This augmentation is dosage-dependent. The induction of utrophin under the muscular membrane is significant probably on account of an additive effect of the arginine via the NO and of the butyrate via the activation of the transcription of the utrophin gene.

N=C(N)NCCC[C@H](N)C(=O)O [L-arginine]
utrophin localisation in muscle (utrophin [1]; vs physiological serum control): the utrophin appears under the muscular membrane

CCCC(=O)O [butyrate]
augmentation of expression of utrophin (factor, intensity of Western blot bands) (utrophin [2]): 2 | augmentation of expression of utrophin (factor, intensity of Western blot bands) (utrophin [1]): 2

arginine butyrate
dose dependence of the augmentation of utrophin (utrophin [3]; OF1 mice, 100, 200 or 300 mg/kg/day i.p. daily for 6 weeks): dosage-dependent | utrophin localisation in muscle (utrophin [3]; OF1 mice, 100, 200 or 300 mg/kg/day i.p. daily for 6 weeks, vs physiological serum control): utrophin appears very clearly under the muscular membrane | quantity of utrophin (utrophin [3]; healthy muscles and mdx mouse (FIG. 4), summary statement): significantly augments the quantity of utrophin
